Results as given in US20100197749A1, “CHEMICAL COMPOUNDS” (ASTRAZENECA AB, priority 2006, published 2010).

Target: T1, EDG-1/S1P1 receptor (Homo sapiens, UniProt P21453)
T1 construct: expressed in transfected cells; host or cells: U2OS (human osteosarcoma), EDG-1 Transfluor U20S WT Clone #37
Experiment: In Vitro Cell Based Receptor Activation Assay-Transfluor Assay
Details: inhibition of S1P-stimulated (375 nM or 750 nM) beta-arrestin GFP relocalization; EDG-1 Transfluor U20S WT Clone #37 cells
Excerpt: The following assay can be used to measure the effects of the compounds of the present invention as S1P1/Edg1 inhibitors.
This cell-based assay was designed to assess the ability of small molecule antagonists to inhibit activation of the GPCR S1P1 in the presence of its cognate ligand S1P. The assay used technology initially developed by Norak Biosciences (Xsira Pharmaceutical) and presently owned by Molecular Devices. A human osteogenic sarcoma (U20S) cell line overexpressing the EDG-1/S1P1) receptor as well as a beta-arrestin/green fluorescent protein (GFP) construct hereafter termed EDG-1 Transfluor U20S WT Clone #37 was employed.
Using a high content screening approach (Cellomics Arrayscan), receptor activity was measured by assessment of the relocalization of beta-arrestin GFP in response to stimulation of EDG-1 by SIP. Specifically, EDG-1 Transfluor U20S WT Clone #37 cells were plated at a density of 6250 cells in 40 μL medium per well in 384 well plastic bottomed microtiter plates (BD Falcon) and incubated overnight at 37° C./5% CO2. Prior to screening, compounds were dissolved in 100% dimethyl sulfoxide (DMSO) to a final stock concentration of 10 mM. […] Plates were then sealed and analysed on the Cellomics Arrayscan using the GPCR signalling algorithm. EC50 values were then calculated using IDBS ActivityBase software.

SMILES | EC50
CCn1c(C(C)NS(=O)(=O)c2ccc(Cl)cc2)nnc1C(F)(F)F (centres unmarked) [Example 11, 4-Chloro-N-[1-(4-ethyl-5-trifluoromethyl-4H-[1,2,4]triazol-3-yl)-ethyl]-benzenesulfonamide] | 670 nM
CCn1c(OC)nnc1[C@@H](Cc1cccnc1)NS(=O)(=O)c1ccc(Cl)cc1 [Example 16, 4-Chloro-N-[(R)-1-(4-ethyl-5-methoxy-4H-[1,2,4]triazol-3-yl)-2-pyridin-3-yl-ethyl]benzenesulfonamide] | 133 nM
